The values that follow come from patent US10124004B2, “Pyrido[3,4-d]pyrimidine derivative and pharmaceutically acceptable salt thereof” (Teijin Pharma Limited, priority 2015, dated 2018).

Like-named read-outs stand apart in the source and are kept apart here.

One experiment addresses T1, CDK2/cyclin A2 (Homo sapiens, UniProt P24941).
T1 construct: purchased Carna Biosciences, Inc. QS S Assist CDK2/Cyclin A2_FP Kit
Kind of experiment: Human CDK2/cyclin A2 inhibitory activity (QS S Assist CDK2/Cyclin A2_FP Kit, IMAP fluorescence polarization). In kind it is biochemical. Summed up: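 Kinase activity read as fluorescence polarization (485/535 nm) after phosphorylated fluorescent substrate binds IMAP reagent (30 min, RT, dark). Enzyme (2.5 ng/well) reacted 60 min at RT with ATP/substrate/metal in HEPES pH 7.4 buffer with Tween 20 and DTT; no-enzyme wells define 0% activity; IC50 by curve fit.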
On the technique in general: Fluorescence polarisation rises when a labelled molecule tumbles more slowly, as on binding a larger partner.

Another experiment deals with T2, CDK4/cyclin D3 (Homo sapiens, UniProt P11802).
T2 construct: purchased Carna Biosciences, Inc. QS S Assist CDK4/Cyclin D3_FP Kit
Kind of experiment: Human CDK4/cyclin D3 inhibitory activity (QS S Assist CDK4/Cyclin D3_FP Kit, IMAP fluorescence polarization). Type of experiment: biochemical. Put shortly: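 IMAP fluorescence-polarization kinase assay with kit ATP/substrate/metal mix and 12.5 to 25 ng/well enzyme in 20 mM HEPES pH 7.4, 0.01% Tween20, 2 mM DTT. Reaction ran 45 min at room temperature, then binding reagent was added for 30 min in the dark. IC50 was taken from dose-response fits of percent inhibition.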

[1] abbreviates: 50% inhibitory concentration against CDK2/cyclin A2, given as class symbol.
Setting [2] is: 50% inhibitory concentration against CDK4/cyclin D3, given as class symbol.
Setting [3] is: Human CDK2/cyclin A2 inhibitory activity, read-out: CDK2 Activity symbol.
[4] abbreviates: Human CDK4/cyclin D3 inhibitory activity, read-out: CDK4 Activity symbol.

T2 sequence (P11802 whole entry): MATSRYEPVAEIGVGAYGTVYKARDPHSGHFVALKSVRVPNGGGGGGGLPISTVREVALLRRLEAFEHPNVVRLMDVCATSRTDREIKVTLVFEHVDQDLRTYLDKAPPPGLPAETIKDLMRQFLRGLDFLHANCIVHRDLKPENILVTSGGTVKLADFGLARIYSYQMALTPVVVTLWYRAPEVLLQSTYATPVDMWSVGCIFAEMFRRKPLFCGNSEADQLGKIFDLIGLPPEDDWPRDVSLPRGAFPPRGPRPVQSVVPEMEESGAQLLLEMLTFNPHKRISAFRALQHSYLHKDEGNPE
T2 sequence (P30281 whole entry partner): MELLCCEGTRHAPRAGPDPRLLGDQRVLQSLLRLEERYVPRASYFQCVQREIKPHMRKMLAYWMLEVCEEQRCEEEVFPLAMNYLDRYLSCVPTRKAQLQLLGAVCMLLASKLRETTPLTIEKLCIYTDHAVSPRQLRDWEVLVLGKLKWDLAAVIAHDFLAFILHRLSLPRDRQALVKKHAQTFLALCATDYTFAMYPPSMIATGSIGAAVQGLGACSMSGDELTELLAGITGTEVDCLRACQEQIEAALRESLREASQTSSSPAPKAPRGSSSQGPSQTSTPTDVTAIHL

Consider `c1cc(N2CCNCC2)nnc1Nc1ncc2cc(C3CCOC3)nc(N[C@H]3CCCOC3)c2n1` (single isomer, unassigned) [Compound 939], for which the IC50 at CDK2/cyclin A2 (setting [1]) is at least 100 nM; against CDK4/cyclin D3 (setting [2]), below 10 nM.

For `CO[C@H](C)c1cc2cnc(Nc3ccc(CN4CCN(CC#N)CC4)cn3)nc2c(NC(C)C)n1` [Compound 969], the values for the IC50 at CDK2/cyclin A2 (setting [1]) and on CDK4/cyclin D3 (setting [2]) were at least 100 nM and 10 to 100 nM, respectively.

For `CCNc1nc([C@@H](C)O)cc2cnc(Nc3cc(C)c(CN4CCN(CCO)CC4)cn3)nc12` [Compound 1053], the IC50 on CDK2/cyclin A2 (setting [1]) is at least 100 nM; against CDK4/cyclin D3 (setting [2]), 10 to 100 nM.

For `C[C@@H](O)c1cc2cnc(Nc3ccc(N4CCNCC4=O)cn3)nc2c(N[C@H]2CC[C@@H](C)CC2)n1` [Compound 624], the IC50 at CDK2/cyclin A2 (setting [3]) was at least 100 nM; on CDK4/cyclin D3 (setting [4]) it was below 10 nM.

For the molecule `CC(C)Nc1nc(C(F)F)cc2cnc(Nc3ccc(CCCN4CCOCC4=O)cn3)nc12` [Compound 168], the IC50 on CDK2/cyclin A2 (setting [3]) was 10 to 100 nM; on CDK4/cyclin D3 (setting [4]), below 10 nM.

As to `CNCCOc1ccc(Nc2ncc3cc([C@@H](C)O)nc(NC4CCC(C)(C)OC4)c3n2)nc1` (some centres unmarked) [Compound 634], the IC50 against CDK2/cyclin A2 (setting [1]) was at least 100 nM; on CDK4/cyclin D3 (setting [2]), below 10 nM.

`CN[C@H]1CC[C@H](Oc2ccc(Nc3ncc4cc([C@@H](C)O)nc(NC(C)C)c4n3)nc2)CC1` [Compound 737]: the figures for the IC50 against CDK2/cyclin A2 (setting [1]) and on CDK4/cyclin D3 (setting [2]) were at least 100 nM and below 10 nM, respectively.

On to `C[C@@H](O)c1cc2cnc(Nc3ccc(CN4CCN(CCO)CC4)cn3)nc2c(NC2CCCC2)n1` [Compound 1070], for which the IC50 is at least 100 nM at CDK2/cyclin A2 (setting [1]) and below 10 nM at CDK4/cyclin D3 (setting [2]).

For `CC(C)Nc1nc(C(F)F)cc2cnc(Nc3ccc(CCCC(N)=O)cn3)nc12` [Compound 135], the IC50 on CDK2/cyclin A2 (setting [3]) is at least 100 nM; at CDK4/cyclin D3 (setting [4]), below 10 nM.

For the molecule `C[C@@H](O)c1cc2cnc(Nc3ccc(CN4CCCC(O)C4)cn3)nc2c(NCC2CCOCC2)n1` (some centres unmarked) [Compound 1087], the IC50 is at least 100 nM against CDK2/cyclin A2 (setting [1]) and below 10 nM against CDK4/cyclin D3 (setting [2]).

Consider `COCC(C)(C)Nc1nc([C@@H](C)O)cc2cnc(Nc3ccc(N4CCNCC4)nn3)nc12` [Compound 212], for which the IC50 on CDK2/cyclin A2 (setting [3]) is at least 100 nM; at CDK4/cyclin D3 (setting [4]) it was below 10 nM.

As to `CNCCOc1ccc(Nc2ncc3cc([C@@H](C)O)nc(NC(C)C)c3n2)nc1` [Compound 529], the IC50 is at least 100 nM at CDK2/cyclin A2 (setting [3]) and below 10 nM at CDK4/cyclin D3 (setting [4]).

In the case of `CCCCNc1nc([C@@H](C)O)cc2cnc(Nc3ccc(CN4CCC[C@@H](O)C4)cn3)nc12` [Compound 1185], the IC50 at CDK2/cyclin A2 (setting [1]) is at least 100 nM; on CDK4/cyclin D3 (setting [2]), below 10 nM.
